Assay: Physical and chemical stability (stability boxes, XRPD and HPLC)
Assay type: physicochemical
Conditions: for Purity -7 days (peak area %) / XRPD: 7 days
Description: About 10 mg of crystalline forms I, III and V were placed in the stability boxes at 40° C./75% RH (open) and 60° C. (covered) for seven days, and some samples were taken out for XRPD and HPLC tests at 0 and 7 days, respectively, to investigate their physical and chemical stability.

COC(=O)N1CCO[C@@H](Cc2c(-c3c(F)cc(S(N)(=O)=O)cc3F)nc3cc(Cl)ccn23)C1 [Crystalline form III, methyl (S)-2-((7-chloro-2-(2,6-difluoro-4-sulfamoylphenyl)imidazo[1,2-a]pyridin-3-yl)methyl)morpholine-4-carboxylate]
Initial purity (Peak area %) (0 days): 99.34 peak area %
Purity -7 days (peak area %) (40° C./75% RH (open)): 99.35 peak area %
XRPD (40° C./75% RH (open)): Constant
stability conclusion in words (40° C./75% RH and 60° C., seven days): good physical and chemical stability
Purity -7 days (peak area %) (60° C. (covered)): 99.35 peak area %
XRPD (60° C. (covered)): Constant
